ChEMBL document CHEMBL1151778, “Synthesis of macrocyclic trypanosomal cysteine protease inhibitors” (Bioorg Med Chem Lett, 2008)
pIC50: −log10 of the molar value.

Experiments:
Rhodesain = Rhodesain (Trypanosoma brucei rhodesiense, UniProt Q95PM0); assay: Inhibition of Trypanosoma brucei rhodesiense recombinant rhodesain by fluorescence technique
Cruzipain = Cruzipain (Trypanosoma cruzi, UniProt P25779); assay: Inhibition of Trypanosoma cruzi recombinant cruzain by fluorescence technique
Cruzipain, sequence (P25779 whole entry): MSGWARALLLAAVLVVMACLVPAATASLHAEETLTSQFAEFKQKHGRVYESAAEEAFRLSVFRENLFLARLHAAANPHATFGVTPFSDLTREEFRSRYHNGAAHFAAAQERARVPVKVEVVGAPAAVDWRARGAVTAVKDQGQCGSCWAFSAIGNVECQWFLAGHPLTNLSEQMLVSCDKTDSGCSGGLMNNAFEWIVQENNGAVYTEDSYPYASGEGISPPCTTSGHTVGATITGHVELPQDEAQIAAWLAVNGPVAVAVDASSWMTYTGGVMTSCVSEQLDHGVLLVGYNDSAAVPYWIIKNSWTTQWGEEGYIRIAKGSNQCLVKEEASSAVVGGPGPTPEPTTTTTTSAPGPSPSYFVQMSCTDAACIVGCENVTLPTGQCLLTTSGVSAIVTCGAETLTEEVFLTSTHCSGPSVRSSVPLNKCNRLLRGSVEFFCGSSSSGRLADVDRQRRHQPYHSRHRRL

Rhodesain, sequence (Q95PM0 whole entry): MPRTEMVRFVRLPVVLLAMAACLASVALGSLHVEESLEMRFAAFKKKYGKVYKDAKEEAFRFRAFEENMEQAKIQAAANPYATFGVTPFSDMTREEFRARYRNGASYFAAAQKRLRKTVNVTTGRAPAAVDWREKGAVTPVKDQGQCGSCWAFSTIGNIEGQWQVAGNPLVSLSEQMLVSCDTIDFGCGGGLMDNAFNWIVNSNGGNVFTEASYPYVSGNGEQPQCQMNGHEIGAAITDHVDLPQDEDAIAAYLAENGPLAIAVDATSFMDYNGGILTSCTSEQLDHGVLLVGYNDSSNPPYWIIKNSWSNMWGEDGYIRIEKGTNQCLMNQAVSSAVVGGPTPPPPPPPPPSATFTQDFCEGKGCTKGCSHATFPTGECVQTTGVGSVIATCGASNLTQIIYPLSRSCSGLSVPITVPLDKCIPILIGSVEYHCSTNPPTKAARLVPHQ

CC(C)C[C@@H]1N[C@@H](C(=O)Nc2ccccc2)CCCCC[C@@H](/C=C/S(=O)(=O)c2ccccc2)NC1=O
pIC50 (Rhodesain): 5.22
pIC50 (Cruzipain): 5.70

CC(C)C[C@@H]1N[C@@H](C(=O)Nc2ccccc2)CCCC[C@@H](/C=C/S(=O)(=O)c2ccccc2)NC1=O
pIC50 (Rhodesain): 5.00
pIC50 (Cruzipain): < 5.00
